Measurements as given in patent publication US11033556B2, “Bicyclic sulfonamides” (priority 2019, dated 2021).
Like-named read-outs stand apart in the source and are kept apart here.

Columns and labels:
[1] = test system: HBV; assay: HBV-DNA Antiviral Assay Using HepG2.2.15 Cells; type: cell-based
Protocol: The following assay procedure describes the HBV antiviral assay. This assay uses HepG2.2.15 cells, which have been transfected with HBV genome, and extracellular HBV DNA quantification as endpoint. Cell viability is assessed in parallel by measuring the intracellular ATP content using the CellTiter-Glo® reagent from Promega.
On day 0, HepG2.2.15 cells were seeded in 96-well plates at a density of 6.0×10^4 cells/well(0.1 ml/well). The cells were incubated at 37° C. and 5% CO2.
On day 1, the test articles were diluted and added to cell culture wells (8 concentrations, 4-fold dilution, in duplicate). GLS4, Tenofovir and Sorafenib were used as reference compounds. 100 μl of culture medium containing the compounds was added to the plate, and the final total volume per well was 200 μl. The final concentration of DMSO in the culture medium was 0.5%. The plate map of compound treatment is shown below. The cells were cultured at 37° C. and 5% CO2 for 3 days.
On day 4, the plates were refreshed with culture media with compounds.
On day 7, cell viability was assessed using the CellTiter-Glo®, and the cell culture supernatants were collected for determination of HBV DNA by qPCR.
Extracellular DNA was isolated with QIAamp 96 DNA Blood Kit per the manufacturer's manual. HBV DNA was then quantified by qPCR with HBV specific primers and probes as specified in Table 2 using the FastStart Universal MasterMix from Roche on an ABI-7900HT. The PCR cycle program consisted of 95° C. for 10 min, followed by 40 cycles at 95° C. for 15 sec and 60° C. for 1 min.
A DNA standard was prepared by dilution of the pAAV2 HBV1.3 plasmid with concentrations ranging from 10 to 1×10^7 […] and used to generate a standard curve by plotting Ct value vs. the concentration of the HBV plasmid DNA standard. The quantity of HBV DNA in each sample was determined by interpolating from the standard curve.
Cell viability was calculated as follows: % Cell viability=(luminescence value of test sample−average luminescence value of blank)/(average luminescence value of 0.5% DMSO control−average luminescence of blank)×100%. HBV DNA inhibition was calculated as follows: 100−(HBV DNA copy number of test sample−HBV DNA copy number of ETV)/HBV DNA copy number of 0.5% DMSO control−HBV DNA copy number of ETV)×100%. The CC50, EC50 and EC90 values were determined by dose-response curves fitted by GraphPad Prism using “log (agonist) vs. response—Variable slope”.

[2] = test system: genotype D HBV; assay: HBV-DNA Antiviral Assay Using HepG2.117 Cells; type: cell-based; conditions: intracellular HBV DNA by qPCR, day 4
Protocol: The following assay procedure describes the HBV antiviral assay, using HepG2.117 cells, which carry a stably integrated genotype D HBV genome under the control of a Tet-off promoter, and intracellular HBV DNA quantification as endpoint. Cell viability is assessed in parallel by measuring the intracellular ATP content using ATPlite (Perkin Elmer).
On day 0, HepG2.117 cells (which are maintained in routine cell culture with doxycycline present in the medium at a final concentration of 1 μg/mL) were seeded in 96-well plates (white with clear bottom) at a density of 2.0×10^4 cells/well (0.1 mL/well) in medium without doxycycline to induce pgRNA transcription and subsequent formation of HBV particles. The cells were incubated at 37° C. and 5% CO2.
On day 1, medium was removed from each well, the test articles were diluted in culture medium without doxcycyline and 100 μL was added to cell culture wells (9 concentrations, 4-fold dilution). For each plate, 6 untreated (merely DMSO) wells were included. The final concentration of DMSO in the culture medium was 2%. Each plate was prepared in duplicate (one for HBV DNA extraction, one for ATPlite measurement). The cells were incubated at 37° C. and 5% CO2 for 3 days.
On day 4, cell viability was assessed using ATPlite and cell lysates were prepared for HBV DNA extraction and subsequent quantification by qPCR.
Medium was removed from each well and 100 μL of 0.33% NP-40 in H2O was added to each well. Plates were sealed, incubated at 4° C. for 5 mins, vortexed extensively and centrifuged briefly. Next, 35 μL of lysate was added to 65 μL QuickExtract DNA Extraction Solution (Epicentre) in a PCR plate for each well. PCR plate was incubated at 65° C. for 6 mins, 98° C. for 2 mins and finally cooled to 4° C. HBV DNA was then quantified by qPCR with HBV-specific primers and probes as specified in Table 4 using the Bio-Rad SSOAdvanced Universal Probes Supermix on a CFX96 machine (Bio-Rad). The PCR cycle program consisted of 95° C. for 3 mins, followed by 40 cycles at 95° C. for 10 sec and 60° C. for 30 sec.
A DNA standard was prepared by dilution of an IDT gBlock corresponding to the amplicon with concentrations ranging from 10^2 to 10^8 copies/input (i.e. per 4 μL) and used to generate a standard curve by plotting Cq values vs. HBV DNA standard concentration. The quantity of HBV DNA in each sample was determined by interpolating from the standard curve.
Cell viability was calculated as follows: % Cell viability=(luminescence value of test sample)/(average luminescence value of 2% DMSO control)×100%. HBV DNA inhibition was calculated as follows: 100−(HBV DNA copy number of test sample)/(average HBV DNA copy number of 2% DMSO control)×100%. No normalization to entecavir was required due to the excellent dynamic window of this assay. The CC50, EC50 and EC90 values were determined by dose-response curves fitted by GraphPad Prism using “log (agonist) vs. response—Variable slope”.

Compound `C=C[C@H]1COc2c(cn(C)c2C(=O)Nc2ccc(F)c(C#N)c2)S(=O)(=O)N1` [Compound 1, (3S)—N-(3-cyano-4-fluorophenyl)-3-ethenyl-7-methyl-1,1-dioxo-2H,3H,4H-11λ6-pyrrolo[3,4-b][1,4,5]oxathiazepine-6-carboxamide] has an EC50 ([1]; HepG2.2.15 cells, extracellular HBV DNA by qPCR, day 7, read-out: EC50) of under 1 µM and an EC50 [2] of 0.001 to 0.01 µM.

Compound `CC#C[C@@H](O)[C@H]1CCc2c(cn(C)c2C(=O)Nc2ccc(F)c(C#N)c2)S(=O)(=O)N1` [Compound 3A, (3R)—N-(3-cyano-4-fluorophenyl)-3-[(1R)-1-hydroxybut-2-yn-1-yl]-7-methyl-1,1-dioxo-2H,3H,4H,5H-1λ6-pyrrolo[3,4-f][1,2]thiazepine-6-carboxamide] has an EC50 ([1]; Hepatitis B virus, HepG2.2.15) of under 1 µM.

`C#C[C@H](O)[C@H]1CCc2c(cn(C)c2C(=O)Nc2ccc(F)c(C#N)c2)S(=O)(=O)N1` [Compound 2B, (3R)—N-(3-cyano-4-fluorophenyl)-3-[(1S)-1-hydroxyprop-2-yn-1-yl]-7-methyl-1,1-dioxo-2H,3H,4H,5H-1λ6-pyrrolo[3,4-f][1,2]thiazepine-6-carboxamide] showed an EC50 ([1]; Hepatitis B virus, HepG2.2.15 cells, extracellular HBV DNA by qPCR, one class for the group of four: *at least 2 of the diastereomers have the indicated activity, read-out: EC50) of under 1 µM.
